Bounds are passed on as bounds.

The subject of one test is A673. Put plainly: Inhibition of cell proliferation of human A673 cells incubated for 72 hrs by CyQUANT assay. The format is functional, cell-based. As to conditions: A673, 72 h.
As a reminder, the IC50 is the concentration needed to halve the response being measured. A low value points to greater potency. With `FC(F)(F)c1cnc(N[C@H]2CCCNC2)nc1-c1n[nH]c2ccccc12`, half-maximal inhibition (IC50) was put at 20 nM. For `Clc1cnc(N[C@@H]2CCCNC2)nc1-c1c[nH]c2ccccc12`, half-maximal inhibition (IC50) was put at 20 nM. `Clc1cnc(N[C@H]2CCCNC2)nc1-c1c[nH]c2ccccc12`: the IC50 was at most 20 nM. For the compound `CNC(=O)[C@H]1CNC[C@H](Nc2ncc(C(F)(F)F)c(-c3c[nH]c4ccccc34)n2)C1`, half-maximal inhibition (IC50) was put at 20 nM. The same measure, in the same setting: in the case of `Clc1cnc(N[C@H]2CCCNC2)nc1-c1cn(-c2ccccc2)c2ccccc12` it was 200 nM; in that of `O[C@@H]1CCNC[C@H]1Nc1ncc(Cl)c(-c2c[nH]c3ccccc23)n1`, 200 nM. As for `Cn1cc(-c2ccc3[nH]cc(-c4nc(N[C@H]5CCCNC5)ncc4C(F)(F)F)c3c2)cn1`, 200 nM corresponded to half-maximal inhibition (IC50). The compound `CCc1cnc(N[C@H]2CCCNC2)nc1-c1c[nH]c2c(C)cccc12` showed an IC50 of 20 nM. In the case of `COCCn1cc(-c2nc(N[C@H]3CCCNC3)ncc2C(F)(F)F)c2ccccc21`, the IC50 worked out at 200 nM. On to `Fc1cccc2c(-c3nc(N[C@H]4CCCNC4)ncc3Cl)c[nH]c12`, for which the concentration for half-maximal inhibition (IC50) is below 20 nM. The same measure, in the same setting: in the case of `CC(=O)c1cccc2c(-c3nc(N[C@H]4CCCNC4)ncc3Cl)c[nH]c12` it was below 20 nM; in that of `CCc1cnc(N[C@@H]2CCCNC2)nc1-c1n[nH]c2ncccc12`, 20 nM. Take `Fc1cccc2c(-c3nc(N[C@H]4CCCNC4)ncc3Cl)n[nH]c12`: the IC50 was below 20 nM.

In turn, `FC(F)(F)c1cnc(N[C@H]2CNC[C@@H](c3nnc4ccccn34)C2)nc1-c1c[nH]c2ccccc12` displayed an IC50 of 200 nM.

The compound `CCc1cnc(N[C@H]2CCCNC2)nc1-c1c[nH]c2ncc(F)cc12` yielded a half-maximal inhibitory concentration (IC50) of 200 nM. Compound `Cc1[nH]c2ccccc2c1-c1nc(N[C@H]2CCCNC2)ncc1Cl` had an IC50 of 20 nM. `FC(F)(F)c1cnc(N[C@H]2CCCNC2)nc1-c1c[nH]c2cc(-c3cn[nH]c3)ccc12`: the midpoint of inhibition, the IC50, lay at 20 nM. The compound `CCOP(=O)(OCC)c1ccc2[nH]cc(-c3nc(N[C@H]4CCCNC4)ncc3C(F)(F)F)c2c1` came in with an IC50 of 200 nM. Compound `FC(F)(F)c1cnc(N[C@H]2CCCNC2)nc1-c1c[nH]c2ccc(Cl)cc12` registered an IC50 below 20 nM.

For the compound `Cc1cccc2c(-c3nc(N[C@H]4CCCNC4)ncc3F)c[nH]c12`, half-maximal inhibition (IC50) required 200 nM. Still for that read-out and setting: then `C[C@H]1CCNC[C@@H]1Nc1ncc(Cl)c(-c2c[nH]c3ccccc23)n1`, with 200 nM; and `C[C@H](O)c1cnc(N[C@H]2CCCNC2)nc1-c1c[nH]c2ccccc12`, with 200 nM.

As to `N#Cc1cccc2c(-c3nc(N[C@H]4CCCNC4)ncc3C(F)(F)F)c[nH]c12`, the IC50 is below 20 nM.

In the case of `C[C@@H]1CNC[C@@H](Nc2ncc(Cl)c(-c3c[nH]c4ccccc34)n2)C1`, 20 nM corresponded to half-maximal inhibition (IC50).

`Clc1cnc(NC2(c3ccccc3)CCCNC2)nc1-c1c[nH]c2ccccc12` (stereo not drawn) registered an IC50 of 200 nM. `CC1(C)CCNC[C@H]1Nc1ncc(C(F)(F)F)c(-c2c[nH]c3ccccc23)n1`: half-maximal inhibition (IC50) required 200 nM.

As for `Fc1cccc2c(-c3nc(N[C@H]4CCCNC4)ncc3C(F)(F)F)n[nH]c12`, the IC50 is below 20 nM. Turning to `F[C@@H]1CCNC[C@H]1Nc1ncc(Cl)c(-c2c[nH]c3ccccc23)n1`, the IC50 came out at 20 nM. For the compound `Clc1cnc(N[C@H]2CCCNC2)nc1-c1c[nH]c2c(N3CCOCC3)cccc12`, the half-maximal inhibitory concentration (IC50) came out at 20 nM. Consider `COCCn1cc(-c2nc(N[C@H]3CCCNC3)ncc2Cl)c2ccccc21`, for which inhibition was half-maximal at 200 nM (IC50).

`CC1CCC(Nc2ncc(Cl)c(-c3c[nH]c4ccccc34)n2)CN1` (stereo not drawn) yielded an IC50 of 20 nM. For `Clc1cnc(NC2CNCCC2c2ccccc2)nc1-c1c[nH]c2ccccc12` (stereo not drawn), the 50% inhibitory concentration (IC50) amounted to 200 nM.

As to `Cc1ccc2[nH]cc(-c3nc(N[C@H]4CCCNC4)ncc3Cl)c2c1`, the IC50 turned out to be 200 nM. In turn, `CNC(=O)[C@@H]1CNC[C@@H](Nc2ncc(C(F)(F)F)c(-c3c[nH]c4ccccc34)n2)C1` yielded an IC50 of 200 nM. `Cc1cccc2c(-c3nc(N[C@H]4CCCNC4)ncc3Cl)c[nH]c12` displayed an IC50 below 20 nM. On the same count and under the same terms, then `Cn1cc(-c2ccc3c(-c4nc(N[C@H]5CCCNC5)ncc4C(F)(F)F)c[nH]c3c2)cn1`, with below 20 nM; and `CNC(=O)[C@@H]1CNC[C@H](Nc2ncc(C(F)(F)F)c(-c3c[nH]c4ccccc34)n2)C1`, with 20 nM. `Cc1cnc(N[C@H]2CCCNC2)nc1-c1c[nH]c2ccccc12` displayed an IC50 of 20 nM. For the compound `CC(C)n1cc(-c2nc(N[C@H]3CCCNC3)ncc2Cl)c2ccccc21`, it took 200 nM to reach half-maximal inhibition (IC50). The compound `CS(=O)(=O)c1cccc2c(-c3nc(N[C@H]4CCCNC4)ncc3C(F)(F)F)c[nH]c12` returned an IC50 below 20 nM. The compound `Cc1cccc2c(-c3nc(N[C@H]4CCCNC4)ncc3CC(C)C)c[nH]c12` registered an IC50 of 200 nM. The same measure, in the same setting: in the case of `CC(C)c1cnc(N[C@H]2CCCNC2)nc1-c1c[nH]c2ccccc12` it was 200 nM; in that of `FC(F)(F)c1cnc(N[C@H]2CCCNC2)nc1-c1c[nH]c2ccc(-c3cn[nH]c3)cc12`, 200 nM. Turning to `Clc1cnc(N[C@H]2CCCNC2)nc1-c1c[nH]c2ccncc12`, the IC50 is 20 nM.

In the case of `FC(F)(F)c1cnc(N[C@H]2CCCNC2)nc1-c1c[nH]c2c(Cl)cccc12`, the IC50 was below 20 nM. In the case of `CCc1cnc(N[C@H]2CCCNC2)nc1-c1n[nH]c2ccccc12`, the IC50 was determined as 20 nM. Still for that read-out and setting: then `O=C(O)c1cccc2c(-c3nc(N[C@H]4CCCNC4)ncc3Cl)c[nH]c12`, with 200 nM. `OC1CCC(c2cccc3c(-c4nc(N[C@H]5CCCNC5)ncc4C(F)(F)F)c[nH]c23)CC1` (stereo partly drawn) yielded a half-maximal inhibitory concentration (IC50) below 20 nM. For the compound `FC(F)(F)Cc1cnc(N[C@H]2CCCNC2)nc1-c1n[nH]c2ccccc12`, the IC50 worked out at 20 nM.

Consider `Clc1cnc(N[C@H]2CCCNC2)nc1-c1c[nH]c2cccnc12`, for which the 50% inhibitory concentration (IC50) came to 20 nM. As to `Clc1cnc(N[C@H]2CCCNC2)nc1-c1c[nH]c2ccc(N3CCOCC3)cc12`, inhibition was half-maximal at 20 nM (IC50). In turn, `CC1NCCCC1Nc1ncc(Cl)c(-c2c[nH]c3ccccc23)n1` (stereo not drawn) came in with an IC50 of 20 nM.

In the case of `CNC(=O)[C@H]1CNC[C@@H](Nc2ncc(C(F)(F)F)c(-c3c[nH]c4ccccc34)n2)C1`, it took 200 nM to reach half-maximal inhibition (IC50). As to `Clc1cnc(N[C@H]2CCCNC2)nc1-c1c[nH]c2ncccc12`, it took 20 nM to reach half-maximal inhibition (IC50).

Turning to `CCOP(=O)(OCC)c1ccc2c(-c3nc(N[C@H]4CCCNC4)ncc3C(F)(F)F)c[nH]c2c1`, the midpoint of inhibition, the IC50, lay at 20 nM. Take `Clc1cnc(N[C@H]2CCCNC2)nc1-c1cnn2ccccc12`: the IC50 amounted to 20 nM.

On to `O[C@H]1CC[C@@H](c2cccc3c(-c4nc(N[C@H]5CCCNC5)ncc4C(F)(F)F)c[nH]c32)CC1`, for which inhibition was half-maximal at 200 nM (IC50). Turning to `CC1(Nc2ncc(Cl)c(-c3c[nH]c4ccccc34)n2)CCCNC1` (stereo not drawn), the midpoint of inhibition, the IC50, lay at 200 nM. `CNC(=O)c1ccc2c(-c3nc(N[C@H]4CCCNC4)ncc3C(F)(F)F)c[nH]c2c1` yielded an IC50 of 20 nM.

As for `N#Cc1ccc2[nH]cc(-c3nc(N[C@H]4CCCNC4)ncc3C(F)(F)F)c2c1`, the midpoint of inhibition, the IC50, lay at 200 nM. Still for that read-out and setting: then `Fc1cc2[nH]nc(-c3nc(N[C@H]4CCCNC4)ncc3C(F)(F)F)c2cc1F`, with below 20 nM; and `C[C@@H](O)c1cnc(N[C@H]2CCCNC2)nc1-c1c[nH]c2ccccc12`, with 200 nM; and `FC(F)(F)c1cnc(N[C@@H]2CNC[C@H](c3nnc4ccccn34)C2)nc1-c1c[nH]c2ccccc12`, with at most 20 nM.

In turn, `Brc1cnc(N[C@@H]2CCCNC2)nc1-c1c[nH]c2ccccc12` came in with an IC50 below 20 nM. The compound `Cc1cccc2c(-c3nc(N[C@H]4CCCNC4)ncc3C(F)(F)F)c[nH]c12` showed an IC50 below 20 nM.

Regarding `CCc1cnc(N[C@H]2CCCNC2)nc1-c1c[nH]c2ccccc12`, the midpoint of inhibition, the IC50, lay at 20 nM.

`Fc1ccc2[nH]cc(-c3nc(N[C@H]4CCCNC4)ncc3Cl)c2c1` registered an IC50 of 20 nM. Still for that read-out and setting: then `CC1(C)CCNC[C@@H]1Nc1ncc(C(F)(F)F)c(-c2c[nH]c3ccccc23)n1` (single isomer, unassigned), with 20 nM.

A further test has as its system HCC70. Put plainly: Inhibition of cell proliferation of human HCC70 cells incubated for 72 hrs by CyQUANT assay. The format is functional, cell-based. The following applies: HCC70, 72 h.
With `CN1CCC[C@H](Nc2ncc(C(F)(F)F)c(-c3c[nH]c4cc(S(=O)(=O)N5CCC(C)(O)C5)ccc34)n2)C1` (stereo partly drawn), inhibition was half-maximal at 1000 nM (IC50).

Take `Fc1cncc(-c2ccc3c(-c4nc(N[C@H]5CCCNC5)ncc4C(F)(F)F)c[nH]c3c2)c1`: the concentration for half-maximal inhibition (IC50) worked out at 100 nM. As for `Fc1cccc2c(-c3nc(N[C@H]4CCCNC4)ncc3Cl)c[nH]c12`, it took 100 nM to reach half-maximal inhibition (IC50). Still for that read-out and setting: then `Cc1cccc2c(-c3nc(N[C@H]4CCCNC4)ncc3Cl)c[nH]c12`, with below 100 nM; and `FC(F)(F)c1cnc(N[C@H]2CCCNC2)nc1-c1c[nH]c2cc(-c3cccc(Oc4ccccc4)c3)ccc12`, with 1000 nM; and `CS(=O)(=O)c1cccc2c(-c3nc(N[C@H]4CCCNC4)ncc3C(F)(F)F)c[nH]c12`, with below 100 nM. `CC(C)c1cnc(N[C@H]2CCCNC2)nc1-c1c[nH]c2ccccc12`: the IC50 turned out to be 1000 nM.

`CNC(=O)c1cccc2c(-c3nc(N[C@H]4CCCNC4)ncc3C(F)(F)F)cn(C)c12`: the IC50 came to 1000 nM.

Compound `Clc1cnc(N[C@H]2CCCNC2)nc1-c1c[nH]c2ncccc12` returned an IC50 below 100 nM. `Clc1cnc(N[C@H]2CCCNC2)nc1-c1cnn2ccccc12` showed an IC50 of 100 nM. Turning to `Fc1ccc2[nH]cc(-c3nc(N[C@H]4CCCNC4)ncc3Cl)c2c1`, the concentration for half-maximal inhibition (IC50) is 100 nM.

The compound `C[C@H]1CCNC[C@@H]1Nc1ncc(C(F)(F)F)c(-c2c[nH]c3ccccc23)n1` registered an IC50 of 1000 nM. `O=C(c1ccc2c(-c3nc(N[C@H]4CCCNC4)ncc3C(F)(F)F)c[nH]c2c1)N1CC[C@](O)(C(F)(F)F)C1` (single isomer, unassigned) came in with an IC50 of 1000 nM. Turning to `CC1CCNCC1Nc1ncc(C(F)(F)F)c(-c2c[nH]c3ccccc23)n1` (single isomer, unassigned), it took 100 nM to reach half-maximal inhibition (IC50). Compound `CC[C@@]1(O)CCN(C(=O)c2ccc3c(-c4nc(N[C@H]5CCCNC5)ncc4C(F)(F)F)c[nH]c3c2)C1` (single isomer, unassigned) yielded an IC50 of 1000 nM. In turn, `N#Cc1ccc2c(-c3nc(N[C@@H]4CCC5(CCC5)NC4)ncc3C(F)(F)F)c[nH]c2c1` (single isomer, unassigned) displayed an IC50 of 100 nM. For `COC1CCN(C(=O)c2ccc3c(-c4nc(N[C@H]5CCCNC5)ncc4C(F)(F)F)c[nH]c3c2)C1` (single isomer, unassigned), half-maximal inhibition (IC50) required 100 nM. Still for that read-out and setting: in the case of `N#Cc1ccc2c(-c3nc(N[C@H]4CCC5(CCC5)NC4)ncc3C(F)(F)F)c[nH]c2c1` (single isomer, unassigned) it was 1000 nM.

`O=C(c1ccc2c(-c3nc(N[C@H]4CCCNC4)ncc3C(F)(F)F)c[nH]c2c1)N1CC[C@@](O)(C(F)(F)F)C1` (single isomer, unassigned) showed an IC50 of 100 nM. In turn, `CC[C@]1(O)CCN(C(=O)c2ccc3c(-c4nc(N[C@H]5CCCNC5)ncc4C(F)(F)F)c[nH]c3c2)C1` (single isomer, unassigned) displayed an IC50 of 100 nM.

The values are drawn from ChEMBL document CHEMBL4742388, “Inhibitors of cyclin-dependent kinase 7 (cdk7)” (2019).
